Results taken from US20060127967A1, “In vitro test for studying compound predicting pharmacologic and/or harmacokinetic and/or pharmacodynamic parameters of a compound” (priority 2002, published 2006).
Where a name gives a salt, the structure may show the parent alone.

Key:
[1] = tested on: Tetrahymena thermophila; assay: Tetrahymena thermophila cell area, computerized morphometric/image analysis bioassay; assay type: cell-based; details: 6 hours exposure, various concentrations, at least 100 cells per sample
Protocol: Tetrahymena thermophila was grown axenically at 34 ?C in proteosepeptone yeast salts (PPYS) complex medium. Test cultures were prepared by inoculating the protozoa from a stock culture into PPYS to produce initial culture of ˜5000 cell/ml. The cell cultures were then grown for 24 hours at 34 ?C. In the beginning of the experiment the culture was transferred into 3 ml test tubes and exposed to the various concentrations of the tested material. Samples were withdrawn 6 hours following the exposure to the tested material. The samples fixed with formaldehyde solution were placed on the hemocytometer, observed under microscope and the area of tetrahymena was evaluated by computerized morphometric system/image analysis program. For each sample at least 100 cells were evaluated.

[2] = Permeation through Integra bi-layer membrane and human skin in Valia-Chien diffusion cells; assay type: in vitro ADME; details: aqueous solution pH 7.2, receiver Tris buffer pH 7.2, 8 hours, permeation area 0.64 cm^2, HCl
Protocol: Permeation studies with aqueous solution of Propranolol HCl (pH 7.2) through Integra and human skin were carried out in Valia-Chien diffusion cells. The effective permeation area was 0.64 cm^2. The receiver compartment contained Tris buffer (pH 7.2) and the experiment lasted for 8 hours. The samples were withdrawn at 0, 1, 2, 4, 6 and 8 hours and the quantity of propranolol HCl permeated through the membrane was analyzed by validated HPLC method.

Compound	change in Tetrahymena thermophila cell area with increasing drug concentration in the medium [1]	permeation constant (Kp) through Integra as compared to human skin [2]	permeation constant (Kp) through Integra as compared to human skin ([2]; listed as propranolol)
C=CCc1ccccc1OCC(O)CNC(C)C (stereo not shown) [Alprenolol hydrochloride]	decrease in the cell area	–	–
CC(C)NCC(O)COc1cccc2ccccc12 (stereo not shown) [Propranolol HCl]	–	close similarity	similar
O=C([O-])c1ccccc1O.[Na+] [sodium salicylate]	decrease in cell area	–	–
